Read-outs that look alike come from different tables or passages of the source.
Experiments:
[1] = biological target: T1, full-length human CSNK1A1 (Homo sapiens, UniProt P48729); experiment: CSNK1A1 Assay 2 (ADP-Glo, 1 μM ATP, substrate biotin-Ahx-KRRRAL-pS-VASLPGL); type: biochemical; details: Table 3, read-out: CSNK1A1 Assay 2 IC50 [mol/l] (median)
T1 construct: N-terminal Glutathion-S-Transferase (GST) and full-length human CSNK1A1; purchased Life Technologies PV4174; host or cells: baculovirus infected insect cells
Method in brief: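 GST-tagged full-length human CSNK1A1 from baculovirus-infected insect cells (about 0.0375 ng/μL), preincubated 15 min at 22 °C with compound in HEPES pH 7.5 buffer, with 1 μM ATP and biotin-Ahx-KRRRAL-pS-VASLPGL substrate. ADP formed read by ADP-Glo luminescence.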

[2] = biological target: T2, wild-type Epidermal Growth Factor Receptor (EGFR) (Homo sapiens, UniProt P00533); experiment: WT-EGFR Kinase Assay (TR-FRET, 2 mM ATP); type: biochemical
T2 construct: a fragment of human EGFR (amino acids R669 to A1210); made in house; host or cells: Sf9 insect cells
Method in brief: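 GST-fused human EGFR fragment (R669-A1210) from Sf9 cells, typically 7.6 pg/μL, pre-incubated with compound 15 min at 22° C in Hepes pH 7.0 buffer with MgCl2, DTT and vanadate; biotinylated peptide substrate. After EDTA stop, phosphopeptide detected by TR-FRET (anti-phosphotyrosine Tb-cryptate/streptavidin-XL665), 665/620 nm emission ratio.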

[3] = EGFR Wildtyp 2 mM ATP IC50 [mol/l] (median), Table 4
[4] = read-out: EGFR Wildtyp 2 mM ATP IC50 [mol/l] (median), Table 4

T2 sequence (P00533 669-1210): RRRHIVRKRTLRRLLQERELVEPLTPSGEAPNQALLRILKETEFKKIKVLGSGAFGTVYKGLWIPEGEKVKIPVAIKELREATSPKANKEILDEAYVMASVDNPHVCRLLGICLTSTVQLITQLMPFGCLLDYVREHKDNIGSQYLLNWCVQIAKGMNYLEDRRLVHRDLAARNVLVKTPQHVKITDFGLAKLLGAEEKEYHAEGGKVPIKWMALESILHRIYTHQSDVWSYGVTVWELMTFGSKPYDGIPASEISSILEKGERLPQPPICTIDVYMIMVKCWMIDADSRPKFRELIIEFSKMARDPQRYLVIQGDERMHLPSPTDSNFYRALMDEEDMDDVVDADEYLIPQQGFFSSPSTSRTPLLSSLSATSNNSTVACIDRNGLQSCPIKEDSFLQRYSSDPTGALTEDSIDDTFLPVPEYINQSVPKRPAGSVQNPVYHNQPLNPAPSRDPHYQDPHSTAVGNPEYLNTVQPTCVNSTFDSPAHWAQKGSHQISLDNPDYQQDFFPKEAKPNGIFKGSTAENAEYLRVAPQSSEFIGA
T1 sequence (P48729 whole entry): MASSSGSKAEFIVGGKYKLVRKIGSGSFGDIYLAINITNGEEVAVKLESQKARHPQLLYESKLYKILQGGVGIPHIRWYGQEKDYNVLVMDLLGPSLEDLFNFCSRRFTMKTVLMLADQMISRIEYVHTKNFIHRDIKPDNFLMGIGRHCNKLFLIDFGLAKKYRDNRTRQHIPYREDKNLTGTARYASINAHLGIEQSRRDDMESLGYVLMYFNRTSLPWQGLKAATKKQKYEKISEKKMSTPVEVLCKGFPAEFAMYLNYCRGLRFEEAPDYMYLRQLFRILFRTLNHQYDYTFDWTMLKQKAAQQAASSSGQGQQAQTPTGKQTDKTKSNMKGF

Structure (SMILES)	IC50 [1]	IC50 [2, 3]	IC50 [2, 4]
O=C(Nc1cc(-c2[nH]c3cc(F)cnc3c2-c2ccccc2)ccn1)C(CC(F)F)c1ccc(F)cc1 (single isomer, unassigned; (-)) [Example 20, (−)-4,4-difluoro-2-(4-fluorophenyl)-N-[4-(6-fluoro-3-phenyl-1H-pyrrolo[3,2-b]pyridin-2-yl)pyridin-2-yl]butanamide]	132 nM	> 20000 nM	
O=C(Nc1cc(-c2[nH]c3ccc(F)nc3c2-c2cc(F)ccn2)ccn1)C(CC(F)F)c1ccc(F)cc1 (single isomer, unassigned) [Example 96, (2R or S)-4,4-difluoro-N-{4-[5-fluoro-3-(4-fluoropyridin-2-yl)-1H-pyrrolo[3,2-b]pyridin-2-yl]pyridin-2-yl}-2-(4-fluorophenyl)butanamide]	4.67 nM	> 20000 nM	
O=C(Nc1cc(-c2[nH]c3cccnc3c2-c2ccccn2)ccn1)C(CC(F)F)c1ccc(F)cc1 (single isomer, unassigned; (-)) [Example 12, (−)-4,4-difluoro-2-(4-fluorophenyl)-N-{4-[3-(pyridin-2-yl)-1H-pyrrolo[3,2-b]pyridin-2-yl]pyridin-2-yl}butanamide]	4.45 nM		> 20000 nM
O=C(Nc1cc(-c2[nH]c3c(OC4CC4)cc(F)nc3c2-c2ccccn2)ccn1)C(CC(F)F)c1ccc(F)cc1 (stereo not drawn) [Example 45]	22.3 nM	> 20000 nM	
O=C(Nc1cc(-c2[nH]c3c(N4CCNCC4)ccnc3c2-c2ccccn2)ccn1)C(CC(F)F)c1ccc(F)cc1 (single isomer, unassigned) [Example 94, (2R or S)-4,4-difluoro-2-(4-fluorophenyl)-N-{4-[7-(piperazin-1-yl)-3-(pyridin-2-yl)-1H-pyrrolo[3,2-b]pyridin-2-yl]pyridin-2-yl}butanamide]	2.31 nM		> 20000 nM
COc1ncnc2c(-c3ccccn3)c(-c3ccnc(NC(=O)C(CC(F)F)c4ccc(F)cc4)c3)[nH]c12 (stereo not drawn) [Example 113, 4,4-difluoro-2-(4-fluorophenyl)-N-{4-[4-methoxy-7-(pyridin-2-yl)-5H-pyrrolo[3,2-d]pyrimidin-6-yl]pyridin-2-yl}butanamide]	3.74 nM	> 20000 nM	
CC(C)(O)c1cc(F)nc2c(-c3ccccn3)c(-c3ccnc(NC(=O)C(CC(F)F)c4ccc(F)cc4)c3)[nH]c12 (single isomer, unassigned) [Example 99, (2R or S)-4,4-difluoro-N-{4-[5-fluoro-7-(2-hydroxypropan-2-yl)-3-(pyridin-2-yl)-1H-pyrrolo[3,2-b]pyridin-2-yl]pyridin-2-yl}-2-(4-fluorophenyl)butanamide]	3.55 nM	> 20000 nM	
O=C(Nc1cc(-c2[nH]c3c(OCC(F)F)cc(F)nc3c2-c2ccccn2)ccn1)C(CC(F)F)c1ccc(F)cc1 (single isomer, unassigned) [Example 29, (2R or S)—N-{4-[7-(2,2-difluoroethoxy)-5-fluoro-3-(pyridin-2-yl)-1H-pyrrolo[3,2-b]pyridin-2-yl]pyridin-2-yl}-4,4-difluoro-2-(4-fluorophenyl)butanamide]	3.31 nM	> 20000 nM	
COc1cnc2c(-c3ccccn3)c(-c3ccnc(NC(=O)C(CC(F)F)c4ccc(F)cc4)c3)[nH]c2n1 (single isomer, unassigned) [Example 103, 4,4-difluoro-2-(4-fluorophenyl)-N-{4-[3-methoxy-7-(pyridin-2-yl)-5H-pyrrolo[2,3-b]pyrazin-6-yl]pyridin-2-yl}butanamide]	1.97 nM		> 20000 nM
O=C(Nc1cc(-c2[nH]c3cccnc3c2-c2ccccc2)ccn1)C(CC(F)F)c1ccc(F)cc1 (single isomer, unassigned; (+)) [Example 24, (+)-4,4-difluoro-2-(4-fluorophenyl)-N-[4-(3-phenyl-1H-pyrrolo[3,2-b]pyridin-2-yl)pyridin-2-yl]butanamide]	1.62 nM		> 20000 nM
COc1cc(F)nc2c(-c3ccccn3)c(-c3ccnc(NC(=O)C(CC(F)F)c4ccc(F)cc4)c3)[nH]c12 (single isomer, unassigned; (+)) [Example 40, (+)-4,4-difluoro-N-{4-[5-fluoro-7-methoxy-3-(pyridin-2-yl)-1H-pyrrolo[3,2-b]pyridin-2-yl]pyridin-2-yl}-2-(4-fluorophenyl)butanamide]	3.69 nM	> 20000 nM	
O=C(Nc1cc(-c2[nH]c3nccnc3c2-c2ccccn2)ccn1)C(CC(F)(F)F)c1ccc(F)cc1 (racemic) [Example 119, (2RS)-4,4,4-trifluoro-2-(4-fluorophenyl)-N-{4-[7-(pyridin-2-yl)-5H-pyrrolo[2,3-b]pyrazin-6-yl]pyridin-2-yl}butanamide]	2.71 nM	> 20000 nM	
O=C(Nc1cc(-c2[nH]c3c(OC4CC4)cc(F)nc3c2-c2ccccn2)ccn1)C(CC(F)F)c1ccc(F)cc1 (single isomer, unassigned) [Example 43, N-{4-[7-(cyclopropyloxy)-5-fluoro-3-(pyridin-2-yl)-1H-pyrrolo[3,2-b]pyridin-2-yl]pyridin-2-yl}-4,4-difluoro-2-(4-fluorophenyl)butanamide]	10.2 nM	> 20000 nM	
O=C(Nc1cc(-c2[nH]c3nc(OC(F)F)cnc3c2-c2ccccn2)ccn1)C(CC(F)F)c1ccc(F)cc1 (stereo not drawn) [Example 105, N-{4-[3-(difluoromethoxy)-7-(pyridin-2-yl)-5H-pyrrolo[2,3-b]pyrazin-6-yl]pyridin-2-yl}-4,4-difluoro-2-(4-fluorophenyl)butanamide]	10.9 nM	> 20000 nM	
O=C(Nc1cc(-c2[nH]c3c(CC4CC4)cc(F)nc3c2-c2ccccn2)ccn1)C(CC(F)F)c1ccc(F)cc1 (single isomer, unassigned) [Example 48, (2R or S)—N-{4-[7-(cyclopropylmethyl)-5-fluoro-3-(pyridin-2-yl)-1H-pyrrolo[3,2-b]pyridin-2-yl]pyridin-2-yl}-4,4-difluoro-2-(4-fluorophenyl)butanamide]	9.91 nM		> 20000 nM
O=C(Nc1cc(-c2[nH]c3cccnc3c2-c2cccc(F)n2)ccn1)C(CC(F)F)c1ccc(F)cc1 (single isomer, unassigned; (-)) [Example 26, (−)-4,4-difluoro-2-(4-fluorophenyl)-N-{4-[3-(6-fluoropyridin-2-yl)-1H-pyrrolo[3,2-b]pyridin-2-yl]pyridin-2-yl}butanamide]	15.8 nM	> 20000 nM	
O=C(Nc1cc(-c2[nH]c3cccnc3c2-c2ccccn2)ccn1)C(CCO)c1ccc(F)cc1 (stereo not drawn) [Example 104, 2-(4-fluorophenyl)-4-hydroxy-N-(4-(3-(pyridin-2-yl)-1H-pyrrolo[3,2-b]pyridin-2-yl)pyridin-2-yl)-butanamide]	6.29 nM	> 20000 nM	
O=C(Nc1cc(-c2[nH]c3c(OCC4CC4)ncnc3c2-c2ccccn2)ccn1)C(CC(F)F)c1ccc(F)cc1 (racemic) [Example 128, (2RS)—N-{4-[4-(cyclopropylmethoxy)-7-(pyridin-2-yl)-5H-pyrrolo[3,2-d]pyrimidin-6-yl]pyridin-2-yl}-4,4-difluoro-2-(4-fluorophenyl)butanamide]	8.03 nM	11200 nM	
O=C(Nc1cc(-c2[nH]c3cccnc3c2-c2ccccn2)ccn1)C(CC(F)F)c1ccc(F)cc1 (single isomer, unassigned; (+)) [Example 11, (+)-4,4-difluoro-2-(4-fluorophenyl)-N-{4-[3-(pyridin-2-yl)-1H-pyrrolo[3,2-b]pyridin-2-yl]pyridin-2-yl}butanamide]	1.2 nM	> 20000 nM	
Cc1cnc2c(-c3ccccn3)c(-c3ccnc(NC(=O)C(CC(F)F)c4ccc(F)cc4)c3)[nH]c2c1 (single isomer, unassigned) [Example 9, 4,4-difluoro-2-(4-fluorophenyl)-N-{4-[6-methyl-3-(pyridin-2-yl)-1H-pyrrolo[3,2-b]pyridin-2-yl]pyridin-2-yl}butanamide]	15.8 nM		> 20000 nM
O=C(Nc1cc(-c2[nH]c3nccnc3c2-c2ccccn2)ccn1)C(CC(F)(F)F)c1ccc(F)cc1 (single isomer, unassigned) [Example 120, (2R or S)-4,4,4-trifluoro-2-(4-fluorophenyl)-N-{4-[7-(pyridin-2-yl)-5H-pyrrolo[2,3-b]pyrazin-6-yl]pyridin-2-yl}butanamide]	1.36 nM	> 20000 nM	
O=C(Nc1cc(-c2[nH]c3c(OCC(F)F)cc(F)nc3c2-c2ccccn2)ccn1)C(CC(F)F)c1ccc(F)cc1 (racemic) [Example 28, (2RS)—N-{4-[7-(2,2-difluoroethoxy)-5-fluoro-3-(pyridin-2-yl)-1H-pyrrolo[3,2-b]pyridin-2-yl]pyridin-2-yl}-4,4-difluoro-2-(4-fluorophenyl)butanamide]	3.95 nM	> 20000 nM	
Cc1ccc2[nH]c(-c3ccnc(NC(=O)C(CC(F)F)c4ccc(F)cc4)c3)c(-c3ccccn3)c2n1 (single isomer, unassigned) [Example 6, 4,4-difluoro-2-(4-fluorophenyl)-N-{4-[5-methyl-3-(pyridin-2-yl)-1H-pyrrolo[3,2-b]pyridin-2-yl]pyridin-2-yl}butanamide]	68.2 nM		> 20000 nM
COc1cnc2c(-c3ccccn3)c(-c3ccnc(NC(=O)C(CC(F)F)c4ccc(F)cc4)c3)[nH]c2n1 (stereo not drawn) [Example 101, 4,4-difluoro-2-(4-fluorophenyl)-N-{4-[3-methoxy-7-(pyridin-2-yl)-5H-pyrrolo[2,3-b]pyrazin-6-yl]pyridin-2-yl}butanamide]	4.82 nM	> 20000 nM	

Source: patent US12692261B2, “Substituted heterocyclic compounds and therapeutic uses thereof” (Bayer Aktiengesellschaft, priority 2020, dated 2026)
